Data taken from ChEMBL document CHEMBL1155846, “Selectivity determinants of inhibitor binding to human 20alpha-hydroxysteroid dehydrogenase: crystal structure of the enzyme in ternary complex with coenzyme and the potent inhibitor 3,5-dichlorosalicylic acid” (J Med Chem, 2008).

Assays:
[1] = target: T1, Aldo-keto reductase family 1 member C4 (Homo sapiens, UniProt P17516); test: Inhibition of human recombinant AKR1C4
T1 sequence (P17516 whole entry): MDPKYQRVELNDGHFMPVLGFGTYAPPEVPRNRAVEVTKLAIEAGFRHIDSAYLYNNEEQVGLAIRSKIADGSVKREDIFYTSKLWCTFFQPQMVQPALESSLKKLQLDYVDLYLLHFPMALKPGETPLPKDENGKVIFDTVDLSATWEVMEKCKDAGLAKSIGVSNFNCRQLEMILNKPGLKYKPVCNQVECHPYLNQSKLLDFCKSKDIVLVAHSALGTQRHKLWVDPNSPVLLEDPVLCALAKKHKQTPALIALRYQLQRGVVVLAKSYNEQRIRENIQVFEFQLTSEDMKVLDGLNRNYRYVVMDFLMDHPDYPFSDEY

[2] = target: T2, Aldo-keto reductase family 1 member C3 (Homo sapiens, UniProt P42330); test: Inhibition of human recombinant AKR1C3
T2 sequence (P42330 whole entry): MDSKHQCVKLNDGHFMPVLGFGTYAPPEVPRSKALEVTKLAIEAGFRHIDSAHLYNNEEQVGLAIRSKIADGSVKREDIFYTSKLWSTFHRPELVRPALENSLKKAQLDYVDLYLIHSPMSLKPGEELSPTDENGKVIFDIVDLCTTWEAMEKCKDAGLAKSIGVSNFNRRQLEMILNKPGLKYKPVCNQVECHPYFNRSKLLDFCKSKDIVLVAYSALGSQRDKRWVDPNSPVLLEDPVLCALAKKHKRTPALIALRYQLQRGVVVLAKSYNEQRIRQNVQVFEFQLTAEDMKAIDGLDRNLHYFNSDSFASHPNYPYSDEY

Compound: O=C(O)c1cc(Cl)cc(Cl)c1O
- Ki [1]: 24 µM
- Ki [2]: 94 µM
